# Laboratory results published in patent US20240209053A1 (Protagonist Therapeutics, Inc., priority 2021, published 2024).
# Numbered stars: 1 amine (or outer) side, 2 acyl side, 3 side chain; on linkers, the order of the positions; unused ones are H or OH. Bridge positions count the residues as written; N and C are the ends. Square brackets hold non-standard residues; d marks the D form. Side chains are listed from the residue outwards. Peptide text beside a SMILES is read from it. * marks the point of attachment. Dip = N[C@H](C(=O)O)C(c1ccccc1)c1ccccc1; Hag = O=C([C@H](CCC=[*:3])N[*:1])[*:2]; Palmitoyl = CCCCCCCCCCCCCCCC(=O)*; tBuAla = CC(C)(C)C[C@H](N)C(=O)O; β3hF = N[C@H](CC(=O)O)Cc1ccccc1; Isovaleryl = CC(C)CC(=O)*; Ahx = NCCCCCC(=O)O
# Assays:
# [1] = molecular target: T1, human ferroportin (SLC40A1) (Homo sapiens, UniProt Q9NP59); test: FPN activity assay: internalization/degradation of ferroportin-GFP in stably transfected HEK293 cells (decrease in GFP fluorescence); type: cell-based; details: compound incubated at least 18 hours
# T1 sequence (Q9NP59 1-571): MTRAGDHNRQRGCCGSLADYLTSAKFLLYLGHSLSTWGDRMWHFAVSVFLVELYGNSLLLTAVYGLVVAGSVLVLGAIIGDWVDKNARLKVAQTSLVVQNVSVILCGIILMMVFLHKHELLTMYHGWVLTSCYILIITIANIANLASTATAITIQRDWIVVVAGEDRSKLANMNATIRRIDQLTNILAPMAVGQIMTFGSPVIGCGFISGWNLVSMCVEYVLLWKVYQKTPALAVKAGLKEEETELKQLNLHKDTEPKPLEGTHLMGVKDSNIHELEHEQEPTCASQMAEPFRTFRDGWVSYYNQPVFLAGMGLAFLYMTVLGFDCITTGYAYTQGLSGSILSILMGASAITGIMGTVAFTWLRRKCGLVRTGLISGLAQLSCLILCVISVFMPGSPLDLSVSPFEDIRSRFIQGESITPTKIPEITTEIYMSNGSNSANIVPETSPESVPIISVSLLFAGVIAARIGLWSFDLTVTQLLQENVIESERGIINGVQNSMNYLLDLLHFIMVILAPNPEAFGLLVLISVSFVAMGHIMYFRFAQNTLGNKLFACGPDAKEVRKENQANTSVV
# Procedure: Peptide analogues were tested in vitro for induction of internalization of the human ferroportin protein. Following internalization, the ferroporin protein is degraded. The assay used (FPN activity assay) measures a decrease in fluorescence of the receptor. The cDNA encoding the human ferroportin (SLC40A1) was cloned from a cDNA clone from Origene (NM_014585). The DNA encoding the ferroportin was amplified by PCR using primers also encoding terminal restriction sites for subcloning, but without the termination codon. The ferroportin receptor was subcloned into a mammalian GFP expression vector containing a neomycin (G418) resistance marker in such that the reading frame of the ferroportin was fused in frame with the GFP protein. The fidelity of the DNA encoding the protein was confirmed by DNA sequencing. HEK293 cells were used for transfection of the ferroportin-GFP receptor expression plasmid. The cells were grown according to standard protocol in growth medium and transfected with the plasmids using Lipofectamine (manufacturer's protocol, Invitrogen). The cells stably expressing ferroportin-GFP were selected using G418 in the growth medium (in that only cells that have taken up and incorporated the cDNA expression plasmid survive) and sorted several times on a Cytomation MoFloTM cell sorter to obtain the GFP-positive cells (488 nm/530 nm). The cells were propagated and frozen in aliquots. […] Compound was added to desired final concentration for at least 18 hours in the incubator. […] Compound was added to desired final concentration for at least 18 hours but no more than 24 hours in the incubator. […] The “RI” in RI-Mini-Hepcidin refers to Retro Inverse. A retro inverse peptide is a peptide with a reversed sequence in all D amino acids. An example is that […] becomes […]. The EC50 of these reference compounds for ferroportin internalization/degradation was determined according to the FPN activity assay described above. These peptides served as control standards.
# ferroportin = molecular target: T2, ferroportin (Homo sapiens, UniProt Q9NP59); test: T47D cell-based ferroportin internalization assay in presence of 0.5% mouse serum albumin (MSA); details: T47D cells
# T2 sequence (Q9NP59 1-571): T1 sequence (Q9NP59 1-571)
# Procedure: The potency of the peptides in causing ferroportin internalization was evaluated in a T47D cell-based assay. […] In this internalization assay, the potency of the test peptides was evaluated in presence of serum albumin which is the main protein component in the blood. T47D cells were maintained in RPMI media (containing required amount of fetal bovine serum) and regularly sub-cultured. In preparation for the assay, the cells were seeded in 96-well plates at a density of 80-100 k cells per well in 100 ul volume and allowed to rest overnight. On the next day, test peptides were first prepared in dilution series (10-point series, starting concentration of ˜5 μM, typically 3-4×fold dilution steps), all with 0.5% mouse serum albumin (MSA purified from mouse serum; Sigma, A3139). The test peptide dilution series were allowed to incubate at room temperature for 30 min. Then the media was aspirated from the 96-well cell plate and test peptide dilution series were added. After 1 hr incubation, the media with test peptides was aspirated out and AF647-conjugated detection peptide was added at fixed concentration of 200 nM. The AF647-conjugated detection peptide was previously verified to bind to ferroportin and cause its internalization. The cells were washed again after a 2 hr incubation in preparation for flow cytometry analysis. The Median Fluorescence Intensity (MFI) of the AF647-positive population was measured (after removing dead cells and non-singlets from the analysis). The MFI values were used to generate a dose-response curve and obtain IC50 potencies for the test peptides. The IC50 potencies were calculated by using 4-parameter non-linear fitting function in Graphpad Prism (Table 6A).
IC50 [1] [nM],IC50 (ferroportin) [nM],SMILES
10 to 100,100 to 500,CCCCCCCCCCCCCCCC(=O)NCCCCCC(=O)NCCCC[C@H](NC(=O)C[C@H](Cc1ccccc1)NC(=O)[C@@H]1CCC=CCC[C@H](NC(=O)CC(C)C)C(=O)N(C)[C@@H]([C@@H](C)O)C(=O)N[C@@H](Cc2c[nH]cn2)C(=O)N[C@@H](C(c2ccccc2)c2ccccc2)C(=O)N2CCC[C@H]2C(=O)N[C@@H](C)C(=O)N[C@@H]([C@@H](C)CC)C(=O)N1)C(=O)N[C@H](CCCCN)C(N)=O [Compd 49]
10 to 100,1 to 10,CCCCCCCCCCCCCCCC(=O)NCCCCCC(=O)NCCCC[C@H](NC(=O)C[C@H](Cc1ccccc1)NC(=O)[C@@H]1CCC=CCC[C@H](NC(=O)CC(C)C)C(=O)N[C@@H]([C@@H](C)O)C(=O)N[C@@H](Cc2c[nH]cn2)C(=O)N[C@@H](C(c2ccccc2)c2ccccc2)C(=O)N2CCC[C@H]2C(=O)N[C@@H](C)C(=O)N[C@@H]([C@@H](C)CC)C(=O)N1)C(N)=O [Compd 17]
100 to 500,10 to 100,CCCCCCCCCCCCCCCC(=O)NCCCCCC(=O)NCCCC[C@H](NC(=O)[C@@H]1CCC=CCC[C@H](NC(=O)CC(C)C)C(=O)N[C@@H]([C@@H](C)O)C(=O)N[C@@H](Cc2c[nH]cn2)C(=O)N[C@@H](C(c2ccccc2)c2ccccc2)C(=O)N2CCC[C@H]2C(=O)N[C@@H](C)C(=O)N[C@@H]([C@@H](C)CC)C(=O)N1)C(N)=O [Compd 18] (Isovaleryl-[Hag]TH[Dip]PAI[Hag]K([Ahx-Palmitoyl])-NH2; staple 1-8)
100 to 500,> 500,CCCCCCCCCCCCCCCC(=O)NCCCCCC(=O)NCCCC[C@H](NC(=O)C[C@H](Cc1ccccc1)NC(=O)[C@H]1CCCC=CCCC[C@@H](NC(=O)CC(C)C)C(=O)N[C@@H]([C@@H](C)O)C(=O)N[C@@H](Cc2c[nH]cn2)C(=O)N[C@@H](C(c2ccccc2)c2ccccc2)C(=O)N2CCC[C@H]2C(=O)N[C@@H](C)C(=O)N[C@@H]([C@@H](C)CC)C(=O)N1)C(=O)N[C@H](CCCCN)C(N)=O [Compd 73]
10 to 100,100 to 500,CCCCCCCCCCCCCCCC(=O)NCCCCCC(=O)NCCCC[C@H](NC(=O)C[C@H](Cc1ccccc1)NC(=O)[C@H]1CCC=CCC[C@@H](NC(=O)CC(C)C)C(=O)N[C@@H]([C@@H](C)O)C(=O)N[C@@H](Cc2c[nH]cn2)C(=O)N[C@@H](C(c2ccccc2)c2ccccc2)C(=O)N2CCC[C@H]2C(=O)N[C@@H](C)C(=O)N[C@@H]([C@@H](C)CC)C(=O)N1)C(=O)N[C@H](CCCCN)C(N)=O [Compd 72]
1 to 10,1 to 10,CCCCCCCCCCCCCCCC(=O)NCCCCCC(=O)NCCCC[C@H](NC(=O)C[C@H](Cc1ccccc1)NC(=O)[C@@H]1CC=CCCC[C@H](NC(=O)CC(C)C)C(=O)N[C@@H]([C@@H](C)O)C(=O)N[C@@H](Cc2c[nH]cn2)C(=O)N[C@@H](C(c2ccccc2)c2ccccc2)C(=O)N2CCC[C@H]2C(=O)N[C@@H](C)C(=O)N[C@@H]([C@@H](C)CC)C(=O)N1)C(=O)N[C@H](CCCCN)C(N)=O [Compd 30]
10 to 100,1 to 10,CCCCCCCCCCCCCCCC(=O)NCCCCCC(=O)NCCCC[C@H](NC(=O)C[C@H](Cc1ccccc1)NC(=O)[C@@H]1CCCC=CCCC[C@@H](NC(=O)CC(C)C)C(=O)N[C@@H]([C@@H](C)O)C(=O)N[C@@H](Cc2c[nH]cn2)C(=O)N[C@@H](C(c2ccccc2)c2ccccc2)C(=O)N2CCC[C@H]2C(=O)N[C@@H](C)C(=O)N[C@@H]([C@@H](C)CC)C(=O)N1)C(=O)N[C@H](CCCCN)C(N)=O [Compd 70]
10 to 100,10 to 100,CCCCCCCCCCCCCCCC(=O)NCCCCCC(=O)NCCCC[C@H](NC(=O)C[C@H](Cc1ccccc1)NC(=O)[C@@H]1CCC=CCC[C@H](NC(=O)CC(C)C)C(=O)N[C@@H]([C@@H](C)O)C(=O)N[C@@H](Cc2c[nH]cn2)C(=O)N[C@@H](C(c2ccccc2)c2ccccc2)C(=O)N2CCC[C@H]2C(=O)N(C)[C@@H](C)C(=O)N[C@@H]([C@@H](C)CC)C(=O)N1)C(=O)N[C@H](CCCCN)C(N)=O [Compd 52]
10 to 100,10 to 100,CCCCCCCCCCCCCCCC(=O)NCCCCCC(=O)NCCCC[C@H](NC(=O)[C@H](CC(C)(C)C)NC(=O)[C@@H]1CCC=CCC[C@H](NC(=O)CC(C)C)C(=O)N[C@@H]([C@@H](C)O)C(=O)N[C@@H](Cc2c[nH]cn2)C(=O)N[C@@H](C(c2ccccc2)c2ccccc2)C(=O)N2CCC[C@H]2C(=O)N[C@@H](C)C(=O)N[C@@H]([C@@H](C)CC)C(=O)N1)C(=O)N[C@H](CCCCN)C(N)=O [Compd 64] (Isovaleryl-[Hag]TH[Dip]PAI[Hag][tBuAla]K([Ahx-Palmitoyl])[dK]-NH2; staple 1-8)
100 to 500,100 to 500,CCCCCCCCCCCCCCCC(=O)NCCCCCC(=O)NCCCC[C@H](NC(=O)[C@H](C)NC(=O)[C@@H]1CCC=CCC[C@H](NC(=O)CC(C)C)C(=O)N[C@@H]([C@@H](C)O)C(=O)N[C@@H](Cc2c[nH]cn2)C(=O)N[C@@H](C(c2ccccc2)c2ccccc2)C(=O)N2CCC[C@H]2C(=O)N[C@@H](C)C(=O)N[C@@H]([C@@H](C)CC)C(=O)N1)C(=O)N[C@H](CCCCN)C(N)=O [Compd 46] (Isovaleryl-[Hag]TH[Dip]PAI[Hag]AK([Ahx-Palmitoyl])[dK]-NH2; staple 1-8)
100 to 500,100 to 500,CCCCCCCCCCCCCCCC(=O)NCCCCCC(=O)NCCCC[C@H](NC(=O)C[C@H](Cc1ccccc1)NC(=O)[C@@H]1CCC=CCC[C@H](NC(=O)CC(C)C)C(=O)N[C@@H]([C@@H](C)O)C(=O)N[C@@H](C)C(=O)N[C@@H](C(c2ccccc2)c2ccccc2)C(=O)N2CCC[C@H]2C(=O)N[C@@H](C)C(=O)N[C@@H]([C@@H](C)CC)C(=O)N1)C(=O)N[C@H](CCCCN)C(N)=O [Compd 42] (Isovaleryl-[Hag]TA[Dip]PAI[Hag][β3hF]K([Ahx-Palmitoyl])[dK]-NH2; staple 1-8)
1 to 10,10 to 100,"CCCCCCCCCCCCCCCC(=O)NCCCCCC(=O)NCCCC[C@H](NC(=O)C[C@H](Cc1ccccc1)NC(=O)[C@@H]1CCC=CCC[C@H](NC(=O)CC(C)C)C(=O)N[C@@H]([C@@H](C)O)C(=O)N[C@@H](Cc2c[nH]cn2)C(=O)N[C@@H](C(c2ccccc2)c2ccccc2)C(=O)N2CCC[C@H]2C(=O)N[C@@H](C)C(=O)N[C@@H]([C@@H](C)CC)C(=O)N1)C(=O)N[C@H](CCCCN)C(N)=O [Peptide ID #16, Isovaleric Acid-[Ala(2)]-T-H-[Dpa]-P-A-I-[Ala(2)]-[bhPhe]-[Lys(Ahx_Palm)]-[(D)Lys]-NH2]"
10 to 100,10 to 100,CCCCCCCCCCCCCCCC(=O)NCCCCCC(=O)NCCCC[C@H](NC(=O)C[C@H](Cc1ccccc1)NC(=O)[C@@H]1CC=CCC[C@H](NC(=O)CC(C)C)C(=O)N[C@@H]([C@@H](C)O)C(=O)N[C@@H](Cc2c[nH]cn2)C(=O)N[C@@H](C(c2ccccc2)c2ccccc2)C(=O)N2CCC[C@H]2C(=O)N[C@@H](C)C(=O)N[C@@H]([C@@H](C)CC)C(=O)N1)C(=O)N[C@H](CCCCN)C(N)=O [Compd 26]
